Results published in US20240041042A1, “1-(PYRIDYL)-5-AZINYLPYRAZOLE DERIVATIVES, AND THEIR USE FOR CONTROL OF UNDESIRED PLANT GROWTH” (Bayer Aktiengesellschaft, priority 2020, published 2024).

Key:
Format in all cases: in vivo
[1] = test system: Abutilon theophrasti (ABUTH); experiment: Pre-emergence herbicidal action against ABUTH; details: 100% = plants have died
How it was run: (§1)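 Application rates ran to 320 g/ha or lower, with several dosages tested on the same weeds. The compound, as wettable powder or emulsion concentrate, is sprayed pre-emergence onto soil over sown seeds; greenhouse growth follows, and effect is rated visually after roughly 3 weeks.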

[2] = test system: Alopecurus myosuroides (ALOMY); experiment: Pre-emergence herbicidal action against ALOMY; details: scored visually after about 3 weeks, 100% = plants have died
How it was run: as §1

[3] = test system: Amaranthus retroflexus (AMARE); experiment: Pre-emergence herbicidal action against AMARE; details: visual scoring after about 3 weeks vs untreated controls
How it was run: as §1

Avena fatua (AVEFA) [4] = experiment: Pre-emergence herbicidal action against AVEFA; details: visual scoring after about 3 weeks vs untreated controls
How it was run: as §1

[5] = test system: Echinochloa crus-galli (ECHCG); experiment: Pre-emergence herbicidal action against ECHCG; details: dosage 320 g/ha
How it was run: as §1

Lolium rigidum (LOLRI) [6] = experiment: Pre-emergence herbicidal action against LOLRI
How it was run: as §1

[7] = test system: Matricaria inodora (MATIN); experiment: Pre-emergence herbicidal action against MATIN; details: dosage 320 g/ha
How it was run: as §1

[8] = test system: Pharbitis purpurea (PHBPU); experiment: Pre-emergence herbicidal action against PHBPU
How it was run: as §1

[9] = test system: Polygonum convolvulus (POLCO); experiment: Pre-emergence herbicidal action against POLCO
How it was run: as §1

Setaria viridis (SETVI) [10] = experiment: Pre-emergence herbicidal action against SETVI
How it was run: as §1

[11] = test system: Verconica persica (VERPE); experiment: Pre-emergence herbicidal action against VERPE; details: dosage 320 g/ha
How it was run: as §1

Viola tricolor (VIOTR) [12] = experiment: Pre-emergence herbicidal action against VIOTR
How it was run: as §1

[13] = test system: Abutilon theophrasti (ABUTH); experiment: Post-emergence herbicidal action against ABUTH; details: visual rating about 3 weeks after treatment vs untreated controls (100% = plants have died, 0% = like control plants)
How it was run: (§2)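 Doses of 320 g/ha or lower, suffixes a, b and c marking different dosages, were applied post-emergence at the one-leaf stage in 600 l/ha water with 0.5% additive. Damage was assessed visually after about 3 weeks in the greenhouse.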

[14] = test system: Alopecurus myosuroides (ALOMY); experiment: Post-emergence herbicidal action against ALOMY; details: visual rating about 3 weeks after treatment vs untreated controls (100% = plants have died, 0% = like control plants)
How it was run: as §2

[15] = test system: Amaranthus retroflexus (AMARE); experiment: Post-emergence herbicidal action against AMARE
How it was run: as §2

Avena fatua (AVEFA) [16] = experiment: Post-emergence herbicidal action against AVEFA; details: visual rating about 3 weeks after treatment
How it was run: as §2

[17] = test system: Echinochloa crus-galli (ECHCG); experiment: Post-emergence herbicidal action against ECHCG
How it was run: as §2

Lolium rigidum (LOLRI) [18] = experiment: Post-emergence herbicidal action against LOLRI; details: dosage 320 g/ha
How it was run: as §2

[19] = test system: Matricaria inodora (MATIN); experiment: Post-emergence herbicidal action against MATIN; details: dosage 320 g/ha
How it was run: as §2

[20] = test system: Pharbitis purpurea (PHBPU); experiment: Post-emergence herbicidal action against PHBPU; details: dosage 320 g/ha
How it was run: as §2

[21] = test system: Polygonum convolvulus (POLCO); experiment: Post-emergence herbicidal action against POLCO
How it was run: as §2

Setaria viridis (SETVI) [22] = experiment: Post-emergence herbicidal action against SETVI
How it was run: as §2

[23] = test system: Verconica persica (VERPE); experiment: Post-emergence herbicidal action against VERPE
How it was run: as §2

Viola tricolor (VIOTR) [24] = experiment: Post-emergence herbicidal action against VIOTR
How it was run: as §2

Oryza sativa (ORYSA) = details: crop plant compatibility, 80 g/ha, effect in comparison to untreated controls
How it was run: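 Visual rating (% effect vs. untreated plants; 100% = plant death) made about 3 weeks after treatment. Plants had been sprayed at one-leaf stage, 2–3 weeks post-sowing, with aqueous WP/EC preparations containing 0.5% additive, 600 l/ha water volume; a, b, c mark dose levels.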

C[C@@H](Oc1nn(-c2ncccc2F)c(-c2ccc(F)nc2)c1I)C(=O)O [Example I-343]
10%: Post-emergence action against ORYSA in % (Oryza sativa (ORYSA))
90%: Pre-emergence action against ALOMY ([2]; 80 g/ha) | Pre-emergence action against ALOMY ([2]; 320 g/ha) | Pre-emergence action against AVEFA in % (Avena fatua (AVEFA) [4]; 320 g/ha) | Pre-emergence action against LOLRI in % (Lolium rigidum (LOLRI) [6]; dosage 80 g/ha) | Pre-emergence action against LOLRI in % (Lolium rigidum (LOLRI) [6]; dosage 320 g/ha) | Pre-emergence action against PHBPU in % ([8]; dosage 320 g/ha) | Pre-emergence action against POLCO in % ([9]; dosage 80 g/ha) | Post-emergence action against ABUTH in % ([13]; 320 g/ha) | Post-emergence action against ALOMY in % ([14]; 80 g/ha) | Post-emergence action against ECHCG in % ([17]; dosage 80 g/ha) | Post-emergence action against ECHCG in % ([17]; dosage 320 g/ha) | Post-emergence action against LOLRI in % (Lolium rigidum (LOLRI) [18]) | Post-emergence action against PHBPU in % [20] | Post-emergence action against SETVI in % (Setaria viridis (SETVI) [22]; dosage 80 g/ha) | Post-emergence action against SETVI in % (Setaria viridis (SETVI) [22]; dosage 320 g/ha)
80%: Pre-emergence action against ABUTH ([1]; 80 g/ha, scored visually after about 3 weeks vs untreated controls, 0% = like control plants) | Pre-emergence action against AVEFA in % (Avena fatua (AVEFA) [4]; 80 g/ha) | Pre-emergence action against PHBPU in % ([8]; dosage 80 g/ha) | Post-emergence action against ABUTH in % ([13]; 80 g/ha) | Post-emergence action against AMARE in % ([15]; 80 g/ha, visual rating about 3 weeks after treatment vs untreated controls (100% = plants have died, 0% = like control plants)) | Post-emergence action against AMARE in % ([15]; 320 g/ha, visual rating about 3 weeks after treatment) | Post-emergence action against AVEFA in % (Avena fatua (AVEFA) [16]; 80 g/ha) | Post-emergence action against AVEFA in % (Avena fatua (AVEFA) [16]; 320 g/ha) | Post-emergence action against MATIN in % [19] | Post-emergence action against POLCO in % ([21]; dosage 80 g/ha) | Post-emergence action against POLCO in % ([21]; dosage 320 g/ha) | Post-emergence action against VERPE in % ([23]; 320 g/ha, VERPE) | Post-emergence action against VERPE in % ([23]; dosage 80 g/ha) | Post-emergence action against VIOTR in % (Viola tricolor (VIOTR) [24]; 80 g/ha) | Post-emergence action against VIOTR in % (Viola tricolor (VIOTR) [24]; 320 g/ha)
100%: Pre-emergence action against ABUTH ([1]; Dosage column 320 g/ha (title prints 3200 g/ha), scored visually after about 3 weeks) | Pre-emergence action against AMARE in % ([3]; 80 g/ha) | Pre-emergence action against AMARE in % ([3]; 320 g/ha) | Pre-emergence action against ECHCG in % [5] | Pre-emergence action against MATIN in % [7] | Pre-emergence action against POLCO in % ([9]; dosage 320 g/ha) | Pre-emergence action against SETVI in % (Setaria viridis (SETVI) [10]; dosage 80 g/ha) | Pre-emergence action against SETVI in % (Setaria viridis (SETVI) [10]; dosage 320 g/ha) | Pre-emergence action against VERPE in % [11] | Pre-emergence action against VIOTR in % (Viola tricolor (VIOTR) [12]; 320 g/ha, Viola tricolor) | Pre-emergence action against VIOTR in % (Viola tricolor (VIOTR) [12]; dosage 80 g/ha) | Post-emergence action against ALOMY in % ([14]; 320 g/ha)
